# Test results reported in ChEMBL document CHEMBL1152625, “Pochonicine, a polyhydroxylated pyrrolizidine alkaloid from fungus Pochonia suchlasporia var. suchlasporia TAMA 87 as a potent beta-N-acetylglucosaminidase inhibitor” (Bioorg Med Chem, 2009).
# Active and inactive are the calls of the source. The rule behind the calls is not given here.
# Key:
# [1] = Inhibition of bovine kidney beta-N-acetylglucosaminidase by pNP-GlcNAc substrate hydrolysis assay; parameters: species or system Bos taurus
# [2] = Inhibition of jack bean beta-N-acetylglucosaminidase by pNP-GlcNAc substrate hydrolysis assay; parameters: species or system Canavalia ensiformis
# [3] = Inhibition of Spodoptera litura beta-N-acetylglucosaminidase by pNP-GlcNAc substrate hydrolysis assay
# [4] = Inhibition of Aspergillus oryzae beta-N-acetylglucosaminidase by pNP-GlcNAc substrate hydrolysis assay
# [5] = Inhibition of Penicillium oxalicum beta-N-acetylglucosaminidase by pNP-GlcNAc substrate hydrolysis assay
# [6] = Competitive inhibition of Spodoptera litura beta-N-acetylglucosaminidase by pNP-GlcNAc substrate hydrolysis assay
# [7] = Noncompetitive inhibition of Aspergillus oryzae beta-N-acetylglucosaminidase by pNP-GlcNAc substrate hydrolysis assay
# [8] = Mixed type inhibition of Penicillium oxalicum beta-N-acetylglucosaminidase by pNP-GlcNAc substrate hydrolysis assay
# [9] = Noncompetitive inhibition of bovine kidney beta-N-acetylglucosaminidase by pNP-GlcNAc substrate hydrolysis assay; parameters: species or system Bos taurus
# [10] = Competitive inhibition of jack bean beta-N-acetylglucosaminidase by pNP-GlcNAc substrate hydrolysis assay; parameters: species or system Canavalia ensiformis
# Bacillus sp. = assay: Inhibition of Bacillus sp. chitinase at 209 uM by pNP-GlcNAc2 substrate hydrolysis assay
# Prunus dulcis = assay: Inhibition of almond beta-glucosidase at 2.38 uM by pNP-beta-Glc substrate hydrolysis assay
# Saccharomyces cerevisiae = assay: Inhibition of yeast alpha-glucosidase at 2.38 uM by […] substrate hydrolysis assay
# [11] = Competitive inhibition of Aspergillus oryzae beta-N-acetylglucosaminidase by pNP-GlcNAc substrate hydrolysis assay
# [12] = Competitive inhibition of Penicillium oxalicum beta-N-acetylglucosaminidase by pNP-GlcNAc substrate hydrolysis assay
# [13] = Competitive inhibition of bovine kidney beta-N-acetylglucosaminidase by pNP-GlcNAc substrate hydrolysis assay; parameters: species or system Bos taurus
SMILES,Ki [1] [nM],Ki [2] [nM],IC50 [3] [nM],IC50 [4] [nM],IC50 [5] [nM],IC50 [1] [nM],IC50 [2] [nM],Ki [6] [nM],Ki [7] [nM],Ki [8] [nM],Ki [9] [nM],Ki [10] [nM],Activity (Bacillus sp.),Activity (Prunus dulcis),Activity (Saccharomyces cerevisiae),Ki [11] [nM],Ki [12] [nM],Ki [13] [nM]
CC(=O)NC[C@@H]1N[C@H](CO)[C@@H](O)[C@@H]1O,68600,3600,,,,,,,,,,,,,,,,
CC(=O)NC[C@H]1N[C@H](CO)[C@@H](O)[C@@H]1O,9800,1900,,,,,,,,,,,,,,,,
CC(=O)NC[C@H]1[C@H](O)[C@H](O)[C@@H]2[C@H](O)C[C@@H](CO)N21 (relative stereo) [POCHONICINE],,,5.96,20.3,42.1,1.06,0.288,1.77,141,13.2,1.04,0.162,inactive,inactive,inactive,,,
CC(=O)N[C@H]1c2nc(CC(=O)O)cn2[C@H](CO)[C@H](O)[C@@H]1O [NAGSTATIN],,,5.85,10.6,60.6,1.71,,1.1,,,,1.41,,,,9.69,8.11,1.64
